Key:
Rattus norvegicus [1] = species: Rattus norvegicus; test: DrugMatrix - Regimen: Daily Repeat; type: toxicity, organism-based, Sprague-Dawley; set-up: regimen Daily Repeat, gender Male, age 6-8 weeks; conditions: in vivo, po, 17 mg/kg, route oral GAVAGE, dose level High, vehicle .5 % CMC; for ABSOLUTE BASOPHIL / ABSOLUTE EOSINOPHIL / ABSOLUTE LYMPHOCYTE / ABSOLUTE MONOCYTE / ABSOLUTE SEGMENTED NEUTROPHIL / BASOPHIL / EOSINOPHIL / ERYTHROCYTE COUNT / HEMATOCRIT / HEMOGLOBIN / LEUKOCYTE COUNT / LYMPHOCYTE / MEAN CORPUSCULAR HEMOGLOBIN / MEAN CORPUSCULAR HEMOGLOBIN CONCENTRATION / MONOCYTE / NEUTROPHIL / NUCLEATED RED BLOOD CELLS / PLATELET COUNT: tissue Blood; for ALANINE AMINOTRANSFERASE / ALBUMIN / ALKALINE PHOSPHATASE / ASPARTATE AMINOTRANSFERASE / BLOOD UREA NITROGEN / CARBON DIOXIDE / CHLORIDE / CHOLESTEROL / CREATININE / GLUCOSE / LACTATE DEHYDROGENASE / LIPASE / PHOSPHORUS / POTASSIUM / SODIUM / TOTAL BILIRUBIN / TOTAL PROTEIN / URIC ACID: tissue Plasma
Rattus norvegicus [2] = species: Rattus norvegicus; type: toxicity, organism-based, Sprague-Dawley; conditions: in vivo, po, 17 mg/kg, 24 h, route oral GAVAGE, dose level High, time 1 day, vehicle .5 % CMC
Description: DrugMatrix - Regimen: Single

## O=C(Nc1c(Cl)cncc1Cl)c1ccc(OC(F)F)c(OCC2CC2)c1 [ROFLUMILAST]
Rattus norvegicus [1]; 72 h, time 3 day
  ABSOLUTE BASOPHIL: 0 CELLS/uL
  ABSOLUTE EOSINOPHIL: 460.33 CELLS/uL
  ABSOLUTE LYMPHOCYTE: 8656.33 CELLS/uL
  ABSOLUTE MONOCYTE: 1347.33 CELLS/uL
  ABSOLUTE SEGMENTED NEUTROPHIL: 10002.67 CELLS/uL
  BASOPHIL: 0%
  EOSINOPHIL: 2.33%
  ERYTHROCYTE COUNT: 6.23 x10E6/uL
  HEMATOCRIT: 37.23%
  HEMOGLOBIN: 13.5 G/DL
  LEUKOCYTE COUNT: 20.47 x10E3/uL
  LYMPHOCYTE: 42.67%
  MEAN CORPUSCULAR HEMOGLOBIN: 21.7 pg
  MEAN CORPUSCULAR HEMOGLOBIN CONCENTRATION: 36.27 G/DL
  MONOCYTE: 6.33%
  NEUTROPHIL: 48.67%
  NUCLEATED RED BLOOD CELLS: 0 /100WBC
  PLATELET COUNT: 1131 x10E3/uL
  ALANINE AMINOTRANSFERASE: 18 u/L
  ALBUMIN: 3.07 G/DL
  ALKALINE PHOSPHATASE: 189.33 u/L
  ASPARTATE AMINOTRANSFERASE: 63 u/L
  BLOOD UREA NITROGEN: 17.33 mg/dL
  CARBON DIOXIDE: 28.33 mmol/L
  CHLORIDE: 97.33 MEQ/L
  CHOLESTEROL: 61 mg/dL
  CREATININE: 0.15 mg/dL
  GLUCOSE: 131.67 mg/dL
  LACTATE DEHYDROGENASE: 149.67 u/L
  LIPASE: 8.33 u/L
  PHOSPHORUS: 10.43 mg/dL
  POTASSIUM: 4.72 MEQ/L
  SODIUM: 144.73 MEQ/L
  TOTAL BILIRUBIN: 0.1 mg/dL
  TOTAL PROTEIN: 6.4 G/DL
  URIC ACID: 1.37 mg/dL
Rattus norvegicus [1]; 96 h, time 4 day
  ABSOLUTE BASOPHIL: 0 CELLS/uL
  ABSOLUTE EOSINOPHIL: 0 CELLS/uL
  ABSOLUTE LYMPHOCYTE: 3924 CELLS/uL
  ABSOLUTE MONOCYTE: 981 CELLS/uL
  ABSOLUTE SEGMENTED NEUTROPHIL: 16695 CELLS/uL
  BASOPHIL: 0%
  EOSINOPHIL: 0%
  ERYTHROCYTE COUNT: 6.21 x10E6/uL
  HEMATOCRIT: 36.1%
  HEMOGLOBIN: 13.4 G/DL
  LEUKOCYTE COUNT: 21.6 x10E3/uL
  LYMPHOCYTE: 18%
  MEAN CORPUSCULAR HEMOGLOBIN: 21.6 pg
  MEAN CORPUSCULAR HEMOGLOBIN CONCENTRATION: 37.15 G/DL
  MONOCYTE: 4.5%
  NEUTROPHIL: 77.5%
  NUCLEATED RED BLOOD CELLS: 0 /100WBC
  PLATELET COUNT: 1458.5 x10E3/uL
  ALANINE AMINOTRANSFERASE: 19 u/L
  ALBUMIN: 2.45 G/DL
  ALKALINE PHOSPHATASE: 153.5 u/L
  ASPARTATE AMINOTRANSFERASE: 51.5 u/L
  BLOOD UREA NITROGEN: 24 mg/dL
  CARBON DIOXIDE: 32 mmol/L
  CHLORIDE: 96.5 MEQ/L
  CHOLESTEROL: 50.5 mg/dL
  CREATININE: 0.16 mg/dL
  GLUCOSE: 112.5 mg/dL
  LACTATE DEHYDROGENASE: 173 u/L
  LIPASE: 7.5 u/L
  PHOSPHORUS: 10.1 mg/dL
  POTASSIUM: 5.21 MEQ/L
  SODIUM: 143.95 MEQ/L
  TOTAL BILIRUBIN: 0.15 mg/dL
  TOTAL PROTEIN: 6 G/DL
  URIC ACID: 1.7 mg/dL
Rattus norvegicus [1]; […], time 14 day
  ABSOLUTE BASOPHIL: 0 CELLS/uL
  ABSOLUTE EOSINOPHIL: 0 CELLS/uL
  ABSOLUTE LYMPHOCYTE: 3828.67 CELLS/uL
  ABSOLUTE MONOCYTE: 852.67 CELLS/uL
  ABSOLUTE SEGMENTED NEUTROPHIL: 8985.33 CELLS/uL
  BASOPHIL: 0%
  EOSINOPHIL: 0%
  ERYTHROCYTE COUNT: 7.38 x10E6/uL
  HEMATOCRIT: 41.2%
  HEMOGLOBIN: 14.73 G/DL
  LEUKOCYTE COUNT: 13.67 x10E3/uL
  LYMPHOCYTE: 26%
  MEAN CORPUSCULAR HEMOGLOBIN: 20 pg
  MEAN CORPUSCULAR HEMOGLOBIN CONCENTRATION: 35.83 G/DL
  MONOCYTE: 6.33%
  NEUTROPHIL: 67.67%
  NUCLEATED RED BLOOD CELLS: 0 /100WBC
  PLATELET COUNT: 2047.33 x10E3/uL
  ALANINE AMINOTRANSFERASE: 33 u/L
  ALBUMIN: 3.1 G/DL
  ALKALINE PHOSPHATASE: 109 u/L
  ASPARTATE AMINOTRANSFERASE: 103.67 u/L
  BLOOD UREA NITROGEN: 25 mg/dL
  CARBON DIOXIDE: 30 mmol/L
  CHLORIDE: 97.5 MEQ/L
  CHOLESTEROL: 42.5 mg/dL
  CREATININE: 0.19 mg/dL
  GLUCOSE: 128 mg/dL
  LACTATE DEHYDROGENASE: 569 u/L
  LIPASE: 10 u/L
  PHOSPHORUS: 9.15 mg/dL
  POTASSIUM: 5.72 MEQ/L
  SODIUM: 142.95 MEQ/L
  TOTAL BILIRUBIN: 0.1 mg/dL
  TOTAL PROTEIN: 6.25 G/DL
  URIC ACID: 1.7 mg/dL
Rattus norvegicus [2]; tissue Blood
  ABSOLUTE EOSINOPHIL: 58.67 CELLS/uL
  ABSOLUTE LYMPHOCYTE: 7680 CELLS/uL
  ABSOLUTE MONOCYTE: 245.33 CELLS/uL
  ABSOLUTE SEGMENTED NEUTROPHIL: 416 CELLS/uL
  BASOPHIL: 0%
  EOSINOPHIL: 0.67%
  ERYTHROCYTE COUNT: 5.72 x10E6/uL
  HEMATOCRIT: 34.83%
  HEMOGLOBIN: 12.9 G/DL
  LEUKOCYTE COUNT: 8.4 x10E3/uL
  LYMPHOCYTE: 91.33%
  MEAN CORPUSCULAR HEMOGLOBIN: 22.67 pg
  MEAN CORPUSCULAR HEMOGLOBIN CONCENTRATION: 37.1 G/DL
  MONOCYTE: 3%
  NEUTROPHIL: 5%
  NUCLEATED RED BLOOD CELLS: 0 /100WBC
  PLATELET COUNT: 734 x10E3/uL
Rattus norvegicus [2]; tissue Plasma
  ALANINE AMINOTRANSFERASE: 52.33 u/L
  ALBUMIN: 4.07 G/DL
  ALKALINE PHOSPHATASE: 343 u/L
  ASPARTATE AMINOTRANSFERASE: 103 u/L
  BLOOD UREA NITROGEN: 16.33 mg/dL
  CARBON DIOXIDE: 32 mmol/L
  CHLORIDE: 103.33 MEQ/L
  CHOLESTEROL: 76.67 mg/dL
  CREATININE: 0.17 mg/dL
  GLUCOSE: 156.33 mg/dL
  LACTATE DEHYDROGENASE: 133.67 u/L
  LIPASE: 9.33 u/L
  PHOSPHORUS: 12.87 mg/dL
  POTASSIUM: 6.09 MEQ/L
  SODIUM: 148.53 MEQ/L
  TOTAL BILIRUBIN: 0.17 mg/dL
  TOTAL PROTEIN: 6.2 G/DL
  URIC ACID: 1.27 mg/dL
